{"source": "patent US20070203215A1", "about": "“Methods & Compositions For Enhancing Pharmaceutical Treatments” (Taiji Biomedical, Inc., priority 1999, published 2007)", "key": {"[1]": {"experiment": "Blood-brain barrier penetration of loperamide, mouse hot-plate test", "type": "in vivo, mice", "details": "loperamide alone, i.v. 1-16 mg/kg", "text": "These increases were dose dependent with respect to loperamide."}, "[2]": {"details": "single agent + vehicle; paclitaxel 24 mg/kg i.v. Q5D x6 + 36 mg/kg i.v. Q5D x2; Formula 2 compound 30 mg/kg p.o. afternoon before and BID day of treatments", "procedure": "Non-tumor bearing athymic mice were treated with the compound of Formula 2 and (or) paclitaxel as described."}, "[3]": {"tested_on": "MDA/LCC6^MDR1 tumors", "experiment": "In vivo antitumor efficacy, orthotopic MDA/LCC6^MDR1 tumors", "design": "species or system SCID/RAG2 mice", "details": "single agent alone; paclitaxel 12 mg/kg i.v.; Formula 2 free base 30 mg/kg p.o.", "procedure": "Anti-tumor efficacy experiments with orthotopic MDA/LCC6 and MDA/LCC6^MDR1 tumors were conducted in female SCID/RAG2 mice. Ascites propagated cells (2×10^6 in 50 μl) were injected into mammary fat pads bilaterally on day 0 before randomization into groups of 5 mice per group. Paclitaxel (12 mg/kg/dose) was administered QD i.v. (tail vein) in 200 μl saline/Cremophor/ethanol (8/1/1 by volume) on days 5, 12, 19, and 26. The compound of Formula 2-free base (30 mg/kg/dose) was administered BID p.o. by gavage in 100 μl PEG 400/Tween 20 (9/1 by volume) on days 4-6, 11-13, 18-20, and 25-27. Mean body weights were recorded at least every other day. Tumor weight was monitored approximately every other day by caliper measurements and calculated according to the formula (Tumor weight =(length×width^2)÷2). This conversion formula was verified by comparing the calculation derived tumor weights to excised and weighed tumors. Animals bearing ulcerated tumors or where tumor weight exceeded 10% of the animal's body weight were terminated. The weights of the bilateral tumors were averaged for each mouse and mean tumor weights for each treatment group±standard error of the mean were calculated. Statistical analysis was carried out by Mann-Whitney test using GraphPad Prism software (San Diego, Calif.).\nThe compound of Formula 2 was administered the afternoon before, 2 hours before and 6 hours after each paclitaxel dose. The ability of orally administered Formula 2 compound to reverse MDR in solid tumors in vivo was assessed with the MDA/LCC6^MDR1 model. Because the compound of Formula 2 produced no effect on paditaxel blood levels, focus on up-front therapy (for naive animals) or minimal residual disease models was maintained, as opposed to established tumors. MDA/LCC6^MDR1 cells that express P-gp were resistant to paclitaxel treatment in vitro and this resistance was reversed by the compound of Formula 2 (FIG. 1). […] Similar results were obtained in three independent experiments with two different strains of immunocompromised mice (SCID/RAG-2 and athymic). […]"}, "[4]": {"experiment": "Oral paclitaxel bioavailability enhancement in rats (mesylate salt)", "type": "in vivo", "details": "male, Sprague Dawley, rat, plasma, Group 2: paclitaxel 40 mg/kg p.o. + vehicle", "procedure": "A total of 21 male Sprague Dawley rats were used. Animals were approximately 8 weeks of age at arrival and weighed ca 327-359 g.\nFollowing analysis of paclitaxel, all remaining plasma were tested for a determination of the Formula 2 compound concentration.\nPlasma samples were analyzed for unchanged paclitaxel using a liquid chromatography/mass spectroscopy (“LC/MS”) assay. […] The highest observable concentration was used as the peak concentration (Cmax). Time to Cmax was denoted as Tmax. […] The area under the plasma concentration curve extrapolated to infinity (AUC(I)) was calculated as the sum of AUC(0-t) plus the ratio of the last plasma concentration to the elimination rate constant. The terminal elimination constant (K) was calculated from the last 3 non-zero points of the log-linear regression. Half-life (tot) was determined by dividing 0.693 by K. The apparent plasma clearance (CL/F) was calculated for paclitaxel by dividing the nominal dose administered by AUC(I). […] Where values were below the limit of quantification, zero was used for pharmacokinetic analysis. Statistical analysis consisted of a Student-T-test with Two-sample unequal variance approximation and was performed on AUC90-t) and Cmax values to compare the Formula 2 compound treated animals vs. the corresponding vehicle treated animals."}, "[5]": {"experiment": "Enhancement of the oral bioavailability of paclitaxel and docetaxel in rats", "type": "in vivo", "details": "male, Sprague-Dawley, rat, plasma, 10 mg/kg, Drug alone (10 mg/kg) oral; for AUC(0-t): read-out: AUC0-8", "procedure": "In a further example, separate groups of eight male Sprague-Dawley rats (250-300 g body weight) with cannulae inserted into the jugular vein were purchased from Harlan-Sprague Dawley (Madison, Wis.). Animals were allowed free movement and access to water but were fasted for at least 8 h prior to the dose until study completion. […] Immediately prior to administration the mixture was diluted in saline to provide a paclitaxel or docetaxel concentration of 1mg/ml. Animals were then administered 10 μl/g body weight by oral gavage.\nSerial blood samples (500 μl) were drawn prior to each dose (time 0) and at 0.5, 1, 2, 3, 4, 6 and 8 h through a cannula inserted into the jugular vein. The blood was collected into Microtainer® tubes containing EDTA anticoagulant. Whole blood was centrifuged under refrigeration at 2800 rpm for 10-20 minutes. Plasma samples were stored at −20° C. until analysis using a validated HPLC-MS method. Maximum plasma paclitaxel concentration (Cmax) and time to achieve this concentration (Tmax) were measured from concentration vs. time profiles. Area under the concentration vs. time curve from 0-8 hours (AUC0-8) was calculated using the linear and log trapezoidal methods in the rising and declining phases of the concentration vs. time curve respectively."}, "[6]": {"tested_on": "tumor-bearing mice", "details": "20 mg/kg paclitaxel alone once per week"}, "[7]": {"experiment": "Saquinavir in rat cerebrospinal fluid and brain after oral ONT-093 or vehicle", "type": "in vivo, Sprague Dawley rats", "details": "Group 4: after vehicle, 30 min after saquinavir dose, individual animals 4001-4004", "protocol": "(§1) Blood samples (ca 0.3 mL) were collected from 8 selected rats by jugular venipuncture during slight anesthesia pre-dose and at 0.25, 0.5, 1, 2, 4 and 8 post-dose (saquinavir dose). Cerebrospinal fluid (CSF) and brain tissue were collected terminally from the remaining 8 rats at ca 30 min following administration of the dose of saquinavir. Blood samples were collected into tubes containing EDTA and placed on wet ice pending centrifugation. Plasma, CSF and brain tissue samples were stored at ca −80° C. until analysis of saquinavir by LC/MS. The vehicle used was polyethylene glycol (PEG-400)1 Tween 20 (9:1; v:v).\n(§2) A total of 16 male Sprague Dawley rats were received from Charles River Canada (Saint-Constant, Quebec). Animals were approximately 9 weeks of age at arrival and weighed ca 312-340 g. Four males were randomly assigned to each of Groups 1, 2, 3 and 4. On the day of dosing and following an overnight fast, animals were weighed (ca 305-323 g) and were administered their respective combination of doses. Animals of Groups 1 and 3 received a single oral dose of ONT-093 (20 mg/kg) by gavage at a dose volume of 2 mL/kg. Animals of Groups 2 and 4 received a single oral dose of the vehicle by gavage at a dose volume of 2 mL/kg. Approximately 30 min following administration of either ONT-093 or the vehicle, all animals received a single oral dose of saquinavir (20 mg/kg) by gavage at a dose volume of 1 mL/kg.\n(§3) Following administration of saquinavir, blood samples (ca 0.3 mL in EDTA) were obtained from all rats of Groups 1 and 2 by jugular venipuncture during anesthesia with isoflurane (Ohmeda Pharmaceutical Products) at each of the following time-points: pre-dose (prior to administration of ONT-093 or vehicle) and 0.25, 0.5, 1, 2, 4 and 8 hr post-dose. Following administration of saquinavir, CSF was obtained from all animals of Groups 3 and 4 at 30 min following dose administration. CSF was collected (in tubes containing no anticoagulant) from the cistema magna during anesthesia with isoflurane. Following CSF collection, the animals were sacrificed by exsanguination via puncture of the vena cava and the brain was harvested from all these rats. Immediately following collection, all samples (blood, CSF and brain) were placed on ice until further processing or storage. Blood samples were centrifuged (ca 3080 g at ca 4° C. for 10 min) and the resulting plasma samples were stored at ca −80° C. pending analysis. CSF samples and brains were stored at ca −80° C. pending analysis.\n(§4) Plasma samples, CSF samples and brains were analyzed for unchanged saquinavir using an LC/MS assay. Pharmacokinetic analysis was performed on plasma concentrations using the PhAST Software Program, Version 2.2-00 (Phoenix International Life Sciences Inc.). The highest observable concentration was assumed to be the peak concentration (Cmax); Time to Cmax was denoted Tmax. The area under the plasma concentration versus time-curve from time zero to the last measurable concentration [AUC(tf] was calculated by the linear trapezoidal method. Where applicable, numerical values were subjected to calculation of group means and % CV. Student-T-test with Satterthwaite approximation was performed on AUC and Cmax values to compare ONT-093 treated animals versus vehicle treated animals using SAS software program, Version 6.12 (SAS Institute Inc., Gary, N.C.). Where values were below limit of quantification, zero was used for pharmacokinetic analysis. The bioavailability (F) of saquinavir when administered with ONT-093 was calculated relative to the AUC values obtained from the animals receiving saquinavir following administration of the vehicle."}, "[8]": {"experiment": "Clinical signs after saquinavir dose", "type": "in vivo, Sprague Dawley rats", "procedure": "This clinical sign was no longer observable approximately 30 to 60 min after it was first observed."}, "[9]": {"experiment": "in vivo", "details": "male, Sprague Dawley, rat; for concentration at 2 hr: 2 hr Post-Dose", "protocol": "as §1, §2, §3, §4"}}, "note": "Where “and” joins values, the source holds several entries; their conditions need not be identical. Equal values may be shown once.", "data": [{"smiles": "CN(C)C(=O)C(CCN1CCC(O)(c2ccc(Cl)cc2)CC1)(c1ccccc1)c1ccccc1", "note": "[Loperamide]", "values": [{"measurement": "Effect on mouse hot-plate escape time", "setting": "[1]", "result": "no effect"}]}, {"smiles": "CC(=O)O[C@H]1C(=O)[C@@]2(C)[C@H]([C@H](OC(=O)c3ccccc3)[C@]3(O)C[C@H](OC(=O)[C@H](O)[C@@H](NC(=O)c4ccccc4)c4ccccc4)C(C)=C1C3(C)C)[C@]1(OC(C)=O)CO[C@@H]1C[C@@H]2O", "note": "[Paclitaxel]", "values": [{"measurement": "Survival", "setting": "[2]", "result": "0/4"}, {"measurement": "In vivo tumor growth compared to the vehicle control", "setting": "[3]", "result": "no significant effect"}, {"measurement": "AUC(0-t)", "setting": "[4]", "result": 67, "unit": "ng·h/mL"}, {"measurement": "half-life", "setting": "[4]; read-out: Paclitaxel mean terminal phase half-life (t1/2) (converted)", "result": 3.9, "unit": "h"}, {"measurement": "Cmax", "setting": "[5]; control of the OCFB series", "result": 99, "unit": "ng/mL"}, {"measurement": "AUC(0-t)", "setting": "[5]; control of the OCFB series", "result": 266, "unit": "ng·h/mL"}, {"measurement": "Cmax", "setting": "[5]; control of the OCM series", "result": 75, "unit": "ng/mL"}, {"measurement": "AUC(0-t)", "setting": "[5]; control of the OCM series", "result": 189, "unit": "ng·h/mL"}, {"measurement": "Lethality", "setting": "[6]", "result": 50, "unit": "%"}, {"measurement": "Tumor growth / tumor formation", "setting": "[6]", "result": "significantly inhibited tumor growth, but did not completely prevent tumor formation at any injection site"}]}, {"smiles": "CC(C)(C)NC(=O)[C@@H]1C[C@@H]2CCCC[C@@H]2CN1C[C@@H](O)[C@H](Cc1ccccc1)NC(=O)[C@H](CC(N)=O)NC(=O)c1ccc2ccccc2n1", "note": "[Saquinavir]", "values": [{"measurement": "Saquinavir Concentration in Brain", "setting": "[7]", "result": "BLQ (3×) and 1.40 ng/mL"}, {"measurement": "Saquinavir Concentration in CSF", "setting": "[7]", "result": "BLQ"}, {"measurement": "concentration at 30 min", "setting": "[7]; male, Sprague Dawley, rat, brain, oral, 20 mg/kg", "result": 1.4, "unit": "ng/mL"}, {"measurement": "Rats with slight salivation immediately following the saquinavir dose", "setting": "[8]; Group 1 (ONT-093 pretreatment)", "result": "3 of 4"}, {"measurement": "Rats with slight salivation immediately following the saquinavir dose", "setting": "[8]; Group 2 (vehicle pretreatment)", "result": "2 of 4"}, {"measurement": "Rats with slight salivation immediately following the saquinavir dose", "setting": "[8]; Group 3 (ONT-093 pretreatment)", "result": "3 of 4"}, {"measurement": "Rats with slight salivation immediately following the saquinavir dose", "setting": "[8]; Group 4 (vehicle pretreatment)", "result": "4 of 4"}, {"measurement": "concentration at 0.25 hr", "setting": "[9]; Concentration of Saquinavir in plasma, 0.25 hr Post-Dose, Mean", "result": 84.6, "unit": "ng/mL"}, {"measurement": "concentration at 0.5 hr", "setting": "[9]; Concentration of Saquinavir in plasma, 0.5 hr Post-Dose, Mean", "result": 72.5, "unit": "ng/mL"}, {"measurement": "concentration at 1 hr", "setting": "[9]; Concentration of Saquinavir in plasma, 1 hr Post-Dose, Mean", "result": 99.5, "unit": "ng/mL"}, {"measurement": "concentration at 2 hr", "setting": "[9]; Concentration of Saquinavir in plasma", "result": 205, "unit": "ng/mL"}, {"measurement": "concentration at 2 hr", "setting": "[9]; Concentration of Saquinavir in plasma, Mean", "result": 157, "unit": "ng/mL"}, {"measurement": "concentration at 4 hr", "setting": "[9]; Concentration of Saquinavir in plasma, 4 hr Post-Dose, Mean", "result": 48.5, "unit": "ng/mL"}, {"measurement": "concentration at 8 hr", "setting": "[9]; Concentration of Saquinavir in plasma, 8 hr Post-Dose, Mean", "result": 4.92, "unit": "ng/mL"}, {"measurement": "AUC(0-inf)", "setting": "[9]; po, 20 mg/kg", "result": 524, "unit": "ng·h/mL"}, {"measurement": "AUC(0-t)", "setting": "[9]; po, 20 mg/kg", "result": 514, "unit": "ng·h/mL"}, {"measurement": "CL/F", "setting": "[9]; po, 20 mg/kg", "result": 654, "unit": "mL/min/kg"}, {"measurement": "Cmax", "setting": "[9]; po, 20 mg/kg", "result": 181, "unit": "ng/mL"}, {"measurement": "Tmax", "setting": "[9]; po, 20 mg/kg", "result": 1.6, "unit": "h"}]}, {"smiles": "CC(=O)O[C@@]12CO[C@@H]1C[C@H](O)[C@@]1(C)C(=O)[C@H](O)C3=C(C)[C@@H](OC(=O)[C@H](O)[C@@H](NC(=O)OC(C)(C)C)c4ccccc4)C[C@@](O)([C@@H](OC(=O)c4ccccc4)[C@H]21)C3(C)C", "note": "[Docetaxel]", "values": [{"measurement": "Cmax", "setting": "[5]; control of the OCFB series", "result": 37, "unit": "ng/mL"}, {"measurement": "AUC(0-t)", "setting": "[5]; control of the OCFB series", "result": 32, "unit": "ng·h/mL"}, {"measurement": "Cmax", "setting": "[5]; control of the OCM series", "result": 30, "unit": "ng/mL"}, {"measurement": "AUC(0-t)", "setting": "[5]; control of the OCM series", "result": 69, "unit": "ng·h/mL"}]}]}
